Test results from patent US10189809B2, “SGC stimulators” (Ironwood Pharmaceuticals, Inc., priority 2010, dated 2019).
Read-outs that look alike come from different tables or passages of the source.

Tests used:
[1] = target: T1, Human soluble guanylate cyclase enzyme (hsGC) (Homo sapiens (Human), UniProt Q02108+Q02153); assay: Purified human sGC enzyme synergy assay in the presence of 1 μM sodium nitroprusside (SNP); type: biochemical; settings: 30 μM compound, with the addition of SNP
In short: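 Purified human sGC (5 ng) incubated 30 min at 37 °C with compounds at 10 or 30 μM, 1 μM sodium nitroprusside, 300 μM GTP and 1 mM IBMX in Tris pH 8.0 with MgCl2/DTT. cGMP quantified against a standard curve, and specific activity expressed as fold-change over DMSO control.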

[2] = target: T2, soluble guanylate cyclase (sGC) (Homo sapiens (Human), UniProt Q02108+Q02153); assay: sGC-HEK-cGMP assay run in the absence of SNP (HEK WC assay); type: cell-based; settings: compound at 30 μM, absence of SNP
In short: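 HEK293 cells with endogenous sGC, preincubated 15 min at 37° C with 0.5 mM IBMX, then exposed to test compound 10 min at 37° C without SNP. Cells lysed in 0.1 M HCl; cGMP quantified by LC/MS against a standard curve. EC50 from concentration-response curves.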

[3] = target: T1, Human soluble guanylate cyclase enzyme (hsGC); assay: Purified human sGC enzyme activity assay; type: biochemical; settings: without the addition of SNP; for sGC Enzyme (fold increase at 30 μM): 30 μM compound
In short: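 Purified human sGC (5 ng) incubated 30 min at 37° C with compound at 10 or 30 μM final in pH 8.0 Tris with 300 μM GTP, 2 mM MgCl2, 2 mM DTT and 1 mM IBMX, then stopped with cold methanol. cGMP quantified against a standard curve. Specific activity (nmol cGMP/mg sGC/min) expressed as fold-change over DMSO control.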

[4] = target: T2, soluble guanylate cyclase (sGC); assay: sGC-HEK-cGMP assay run with SNP incubation (HEK WC assay); type: cell-based; settings: for HEK WC Assay (fold increase at 30 μM in the presence of 10 μM SNP): compound at 30 μM; for Emax at 10 µM: read-out: HEK WC Assay (% Emax at 10 μM/with 10 uM SNP); for Emax at 30 µM: read-out: HEK WC Assay (% Emax at 30 μM/with 10 uM SNP); for EC50: in the presence of 10 uM SNP
In short: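 HEK293 cells with endogenous sGC were pretreated with 0.5 mM IBMX for 15 min at 37 °C, then exposed to test compound plus sodium nitroprusside for 10 min at 37 °C.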

Thoracic aortic rings = assay: Alternative thoracic aortic rings assay (Example 19b; resting tension as 100% inhibition); set-up: species or system rat; settings: Table 10A; for inhibition at 1 µM / inhibition at 3 µM / inhibition at 10 µM / EC50: Rattus norvegicus; for inhibition at 1 µM: read-out: Percent Relaxation at 1 μM; for inhibition at 3 µM: read-out: Percent Relaxation at 3 μM; for inhibition at 10 µM: read-out: Percent Relaxation at 10 μM; for EC50: read-out: Aortic Ring EC50
In short: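 Aortic rings (~2 mm) from male Sprague-Dawley rats (275-299 g) held at 1.0 g resting tension in Krebs-Henseleit at 37 °C under 95% O2/5% CO2, then precontracted with 100 ng/mL phenylephrine. Compounds in DMSO added cumulatively; relaxation recorded by force transducer and EC50 taken from concentration-response curves.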

[5] = read-out: HEK WC Assay (% Emax at 10 μM with 10 uM SNP)
[6] = read-out: HEK WC Assay (% Emax at 30 μM with 10 uM SNP)
[7] = read-out: HEK WC Assay in the presence of 10 uM SNP EC50

T1 sequence (Q02153 whole entry): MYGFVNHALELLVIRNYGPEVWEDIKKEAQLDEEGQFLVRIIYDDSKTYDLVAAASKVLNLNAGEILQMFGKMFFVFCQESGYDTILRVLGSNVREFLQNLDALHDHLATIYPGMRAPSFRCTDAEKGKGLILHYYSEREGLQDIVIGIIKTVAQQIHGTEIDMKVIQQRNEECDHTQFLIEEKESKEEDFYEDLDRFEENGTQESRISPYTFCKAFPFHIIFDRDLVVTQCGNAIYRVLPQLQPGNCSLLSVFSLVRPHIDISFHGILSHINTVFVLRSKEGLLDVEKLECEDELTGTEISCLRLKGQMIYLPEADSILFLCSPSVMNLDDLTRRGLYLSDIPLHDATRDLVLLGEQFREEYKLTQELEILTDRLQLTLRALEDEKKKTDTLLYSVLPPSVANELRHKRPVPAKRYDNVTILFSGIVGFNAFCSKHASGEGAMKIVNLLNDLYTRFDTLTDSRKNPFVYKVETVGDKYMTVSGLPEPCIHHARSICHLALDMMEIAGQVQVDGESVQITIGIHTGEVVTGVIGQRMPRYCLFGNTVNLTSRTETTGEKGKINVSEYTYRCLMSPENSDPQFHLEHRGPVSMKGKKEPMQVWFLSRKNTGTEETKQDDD
T1 sequence (Q02108 whole entry): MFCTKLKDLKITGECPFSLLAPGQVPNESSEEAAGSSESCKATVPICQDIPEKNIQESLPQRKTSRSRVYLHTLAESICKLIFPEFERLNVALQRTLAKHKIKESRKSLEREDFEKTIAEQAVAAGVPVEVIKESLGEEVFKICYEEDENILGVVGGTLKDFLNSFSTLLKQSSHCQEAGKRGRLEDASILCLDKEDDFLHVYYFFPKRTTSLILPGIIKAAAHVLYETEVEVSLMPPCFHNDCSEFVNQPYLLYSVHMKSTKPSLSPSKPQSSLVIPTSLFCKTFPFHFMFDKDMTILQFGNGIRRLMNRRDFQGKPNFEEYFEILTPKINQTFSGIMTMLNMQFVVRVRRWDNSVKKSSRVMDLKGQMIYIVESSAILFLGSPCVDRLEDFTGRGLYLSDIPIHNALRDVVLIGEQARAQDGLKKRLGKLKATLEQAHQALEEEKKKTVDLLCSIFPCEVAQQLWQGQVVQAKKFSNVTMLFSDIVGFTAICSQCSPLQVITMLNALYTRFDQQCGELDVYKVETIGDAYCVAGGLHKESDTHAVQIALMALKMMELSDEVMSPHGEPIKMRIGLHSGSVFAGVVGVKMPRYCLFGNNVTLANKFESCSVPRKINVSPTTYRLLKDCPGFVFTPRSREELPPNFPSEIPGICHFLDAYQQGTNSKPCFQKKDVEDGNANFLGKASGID
T2 sequence (Q02153 whole entry): as the sequence (Q02153 whole entry) above
T2 sequence (Q02108 whole entry): as the sequence (Q02108 whole entry) above

Row | sGC Enzyme (fold increase at 30 μM with SNP) [1] | HEK WC Assay (fold increase at 30 μM in the absence of SNP) [2] | sGC Enzyme (fold increase at 30 μM) [3] | HEK WC Assay (fold increase at 30 μM in the presence of 10 μM SNP) [4] | Emax [4, 5] [%] | Emax at 10 µM [4] [%] | Emax [4, 6] [%] | Emax at 30 µM [4] [%] | EC50 [4, 7] [µM] | EC50 [4] [µM] | Emax ([4]; read-out: HEK WC Assay (% Emax at 1 μM with 10 uM SNP)) [%] | EC50 (Thoracic aortic rings) [µM] | sGC Enzyme (fold increase at 10 μM) ([3]; 10 μM compound) | Compound | inhibition at 1 µM (Thoracic aortic rings; 1 μM) [%] | inhibition at 3 µM (Thoracic aortic rings) [%] | inhibition at 10 µM (Thoracic aortic rings) [%] | Percent Relaxation at 1 μM (Thoracic aortic rings; 1 μM, printed as number or words instead of code)
1 | C (C = 5 to <10 fold increase) | C (C = 2 to <5 fold increase) | B (B = 2 to <5 fold increase) | D (D = 5 to <10 fold increase) | 40 to 60 | 100 to 120 | 40 to 60 | 20 to 40 | 40 to 60 | – | – | – | – | COc1ccc(C2=Nc3nc(-c4cc(-c5ccon5)n(Cc5ccccc5F)n4)ncc3C(C)(C)O2)cc1 [Compound I-137] | – | – | – | –
2 | D (D = 10 to <30 fold increase) | D (D = 5 to <10 fold increase) | C (C = 5 to <10 fold increase) | E (E = 10 to <20 fold increase) | 60 to 80 | 20 to 40 | 20 to 40 | 20 to 40 | – | < 20 | 40 to 60 | – | – | CC(C)(C)NC(=O)c1cnc(-c2cc(-c3ccon3)n(Cc3ccccc3F)n2)nc1N [Compound I-136] | – | – | – | –
3 | D (D = 10 to <30 fold increase) | E (E = 10 to <20 fold increase) | D (D = 10 to <30 fold increase) | F (F = 20 to <30 fold increase) | 100 to 120 | > 120 | 60 to 80 | 60 to 80 | – | < 20 | – | – | – | CC(C)(C)CC(=O)Nc1cnc(-c2cc(-c3ccon3)n(Cc3ccccc3F)n2)nc1N [Compound I-124] | – | – | – | –
4 | C (C = 5 to <10 fold increase) | – | C (C = 5 to <10 fold increase) | – | – | 80 to 100 | – | 100 to 120 | – | – | – | < 2 | – | COC(=O)N(C)c1cnc(-c2cc(-c3ccon3)n(Cc3ccccc3F)n2)nc1N [Compound I-105] | 60 to 80 | 80 to 100 | 100 to 120 | –
5 | C (C = 5 to <10 fold increase) | – | B (B = 2 to <5 fold increase) | – | – | 40 to 60 | – | 20 to 40 | – | – | – | < 2 | – | Nc1nc(-c2cc(-c3ccon3)n(Cc3ccccc3F)n2)ncc1-c1ccncc1 [Compound I-102] | 20 to 40 | 60 to 80 | 80 to 100 | –

More lines, now with the values behind:

Row | Compound | sGC Enzyme (fold increase at 30 μM with SNP) [1] | HEK WC Assay (fold increase at 30 μM in the absence of SNP) [2] | sGC Enzyme (fold increase at 30 μM) [3] | HEK WC Assay (fold increase at 30 μM in the presence of 10 μM SNP) [4] | Emax [4, 5] [%] | Emax at 10 µM [4] [%] | Emax [4, 6] [%] | Emax at 30 µM [4] [%] | EC50 [4, 7] [µM] | EC50 [4] [µM] | Emax ([4]; read-out: HEK WC Assay (% Emax at 1 μM with 10 uM SNP)) [%] | EC50 (Thoracic aortic rings) [µM] | sGC Enzyme (fold increase at 10 μM) ([3]; 10 μM compound) | inhibition at 1 µM (Thoracic aortic rings; 1 μM) [%] | inhibition at 3 µM (Thoracic aortic rings) [%] | inhibition at 10 µM (Thoracic aortic rings) [%] | Percent Relaxation at 1 μM (Thoracic aortic rings; 1 μM, printed as number or words instead of code)
6 | Nc1nc(-c2cc(-c3ccon3)n(Cc3ccccc3F)n2)ncc1NC(=O)OCc1ccccc1 [Compound I-125] | D (D = 10 to <30 fold increase) | D (D = 5 to <10 fold increase) | C (C = 5 to <10 fold increase) | F (F = 20 to <30 fold increase) | 80 to 100 | 80 to 100 | 80 to 100 | 80 to 100 | < 20 | – | – | – | – | – | – | – | –
7 | C=CCOC1(c2cnc(-c3cc(-c4ccon4)n(Cc4ccccc4F)n3)nc2N)CC1 [Compound I-118, 5-(1-(allyloxy)cyclopropyl)-2-(1-(2-fluorobenzyl)-5-(isoxazol-3-yl)-1H-pyrazol-3-yl)pyrimidin-4-amine] | D (D = 10 to <30 fold increase) | D (D = 5 to <10 fold increase) | C (C = 5 to <10 fold increase) | E (E = 10 to <20 fold increase) | 60 to 80 | 60 to 80 | 40 to 60 | 40 to 60 | 60 to 100 | – | – | – | – | – | – | – | –
8 | COC(=O)N(C)c1c(N)nc(-c2cc(-c3ncco3)n(Cc3ccccc3F)n2)nc1N [Compound I-100] | C (C = 5 to <10 fold increase) | – | B (B = 2 to <5 fold increase) | – | – | 20 to 40 | – | 40 to 60 | – | – | – | < 2 | – | 20 to 40 | 60 to 80 | 100 to 120 | –
9 | Nc1nc(-c2cc(-c3ccon3)n(Cc3ccccc3F)n2)ncc1N=C(c1ccccc1)c1ccccc1 [Compound I-123, N5-(diphenylmethylene)-2-(1-(2-fluorobenzyl)-5-(isoxazol-3-yl)-1H-pyrazol-3-yl)pyrimidine-4,5-diamine] | B (B = 2 to <5 fold increase) | B (B = 1 to <2 fold increase) | A (A = no increase to <2 fold increase) | C (C = 2 to <5 fold increase) | 10 to 20 | 10 to 20 | 20 to 40 | 20 to 40 | – | – | – | – | – | – | – | – | –
10 | COC(=O)Nc1c(N)nc(-c2cc(-c3ncco3)n(Cc3ccccc3F)n2)nc1N [Compound I-99] | C (C = 5 to <10 fold increase) | – | B (B = 2 to <5 fold increase) | – | – | 20 to 40 | – | 40 to 60 | – | – | – | < 2 | – | 0 to 10 | 20 to 40 | 80 to 100 | –
11 | Fc1ccccc1Cn1nc(-c2ncccn2)cc1-c1cscn1 [Compound I-85] | D (D = 10 to <30 fold increase) | – | C (C = 5 to <10 fold increase) | – | – | – | – | 100 to 120 | – | – | – | < 2 | – | 60 to 80 | 80 to 100 | 100 to 120 | –
12 | Nc1cc(C(F)(F)F)nc(-c2cc(-c3ccon3)n(Cc3ccccc3F)n2)n1 [Compound I-117] | A (A = no increase to <2 fold increase) | B (B = 1 to <2 fold increase) | A (A = no increase to <2 fold increase) | B (B = 1 to <2 fold increase) | 10 to 20 | 10 to 20 | 0 to 10 | 0 to 10 | – | – | – | – | – | – | – | – | –
13 | Fc1ccccc1Cn1nc(-c2ncccn2)cc1-c1ccccn1 [Compound I-75] | D (D = 10 to <30 fold increase) | – | B (B = 2 to <5 fold increase) | – | – | 10 to 20 | – | 20 to 40 | – | – | – | 2 to 4 | A (A = no increase to <2 fold increase) | 10 to 20 | 20 to 40 | 60 to 80 | –
14 | Nc1ccnc(-c2cc(-c3cscn3)n(Cc3ccccc3F)n2)n1 [Compound I-92] | D (D = 10 to <30 fold increase) | – | B (B = 2 to <5 fold increase) | – | – | 20 to 40 | – | 20 to 40 | – | – | – | < 2 | – | 60 to 80 | 80 to 100 | – | –
15 | COC(=O)Nc1c(N)nc(-c2cc(-c3ccsc3)n(Cc3ccccc3F)n2)nc1N [Compound I-71] | D (D = 10 to <30 fold increase) | – | C (C = 5 to <10 fold increase) | – | – | 10 to 20 | – | 10 to 20 | – | – | – | – | – | – | 10 to 20 | 60 to 80 | No relaxation
